Series [1] has as its system neonicotinoid insecticide susceptible strain 4106A. The experiment in a line: Leaf disc spray bioassay, aphid mortality, susceptible strain. Format: in vivo. The note with it: mixed age aphids on chinese cabbage leaf discs, Potter Tower spray, mortality 72 hours after treatment; strain 4106A from Rothamsted Research. Here is the method: (§1) The following bioassay methodology was utilized to generate the data included in the table:
(§2) 5 cm leaf discs were taken from fully expanded chinese cabbage leaves and placed with the underside facing upwards onto water agar in 5 cm Petri dishes. The leaf discs are infested with between 30 and 40 mixed age aphids 24 hours prior to insecticide treatment. The leaf surface is sprayed with the appropriate test solutions in a Burkhard Potter Tower at an approximate water volume of […]. Test containers are stored at 21° C., 60% RH and 16:8 light/dark. Aphids were assessed for mortality 72 hours after treatment.

In series [2] the test system is neonicotinoid insecticide resistant aphid strain. The experiment in a line: Leaf disc spray bioassay, aphid mortality, resistant strain. The format is in vivo, aphids. Conditions: for LC50 with 95% confidence limit, resistant strain: mixed age aphids on chinese cabbage leaf discs, Potter Tower spray, mortality 72 hours after treatment, strain collected from peach orchard, Avignon region, 2009. Here is the method:
as §1, §2

Take `CC1=NNC(=O)N(N=Cc2cccnc2)C1` [pymetrozine, 4,5-dihydro-6-methyl-4-(3-pyridylmethyleneamino)-1,2,4-triazin-3(2H)-one]: the “LC50 with 95% confidence limit, susceptible strain” value in series [1] was 0.52 (0.4-0.66) ppm. Also, in series [2], the “LC50 with 95% confidence limit, resistant strain” value was 3.07 (0.97-6.59) ppm. Moreover, the “cross-resistance with neonicotinoid insecticides” value in series [2] (neonicotinoid resistant populations of aphids) is on record as “no cross-resistance”.

As for `CN1COCN(Cc2cnc(Cl)s2)/C1=N\[N+](=O)[O-]` [thiamethoxam, reference compound], in series [1], the “LC50 with 95% confidence limit, susceptible strain” value is 0.35 (0.3-0.41) ppm. The “LC50 with 95% confidence limit, resistant strain” value in series [2] is recorded as 148 (128-172) ppm.
